“Also recorded” adds a separate entry of the source.
Experiments:
Saccharomyces cerevisiae = assay: High-Life (High throughput replicative Lifespan measurement) flow cytometry assay in MEP yeast; type: cell-based; conditions: 10 μM, 24 hours in culture, 3-4 replicate wells, repeat of screen hits
Protocol: Cells were labeled with NHS-fluorescein as described above, then diluted to 20 cells/μL in media. 80 μL/well was aliquoted to 384-well plates, which were covered with a breathable membrane and placed on a shaker platform in a humidified incubator. After 3 hours, the plates were removed from the incubator and each well was treated with 20 μL pre-warmed, 30° C. 5 μM β-estradiol in media. In the case of ibuprofen or compound-treated wells, the compound was diluted in this volume at a 5× concentration to achieve a final concentration of 10 μM, or 100 μM for ibuprofen. The plates were then returned to the incubator. At indicated times, one plate was removed from the incubator and placed on an autosampler cooled to 8° C. attached to a Stratedigm flow cytometer. The cytometer was set to automatically add and mix 20 μL of aqueous solution containing 60 μg/mL CF405M-WGA (Biotium 29028) and propidium iodide (Sigma P4864) prior to acquiring 80 μL of sample for each well.
In order to test the lifespan of model organisms on both a large-scale and with quick turn-around, a massively multiplexed method was developed to measure replicative lifespan in the short-lived model organisms Saccharomyces cerevisiae. The protocol uses green-fluorescent labeling to identify progenitor cells, red-fluorescent labeling to differentiate non-viable cells, and blue-fluorescent labeling of bud scars to determine replicative age (FIG. 1). Each parameter is measured using a flow cytometer.
To achieve high throughput, the measurement system was automated, and the assay was performed in 384-well plates. The assay was performed using an autosampler-equipped flow cytometer, in a volume of 100 μL. Growth of even a single cell and its progeny in such a small volume will result in nutrient starvation before the natural replicative lifespan is exhausted; therefore to circumvent this issue, High-Life experiments were performed in the background of the Mother Enrichment Program (MEP) (Lindstrom and Gottschling, Genetics. 2009 October; 183(2):413-22). MEP strains express a CRE recombinase fused to an estrogen-binding domain for only a short time after birth. In the presence of β-estradiol, the recombinase translocates to the nucleus where it can excise two essential genes that have been modified to contain the exogenous LoxP sequence. Addition of β-estradiol to the media thus renders newborn daughters inviable without affecting existing mother cells, preventing exponential growth of the cell population and nutrient depletion (FIG. 2A).
The High-Life method was then tested to determine if it was suitable to screening for compounds that extend replicative lifespan. […] The effect of these compounds on High-Life readings was assayed after 24 hours in culture at 10 μM concentration. As a positive control, ibuprofen was used.

C. elegans = assay: Roundworm (C. elegans) lifespan extension; type: in vivo, Caenorhabditis elegans; conditions: 10 μM in NGM plates, treated for duration of lifespan, vs control
Protocol: Synchronized animals were obtained using the egg-laying method, allowing young […] eggs for 4 hours on bacteria-seeded plates. For each treatment group, 120 synchronized day-1 adults were used. All experiments were carried out at 20° C. Treatment groups were blinded. Nematode growth media (NGM) plates were made for each treatment group: Negative control (DMSO), Mycophenolic Acid (10 μM in DMSO), and Terreic Acid (10 μM in DMSO). The compounds were added to NGM media before pouring the plates. The plates were then dried overnight before moving them to 4° C. to prevent degradation of the compounds. Plates were seeded with 100 μL of 10× concentrated OP50 E. coli, and dried overnight at room temperature. Plates were UV treated with a UVP CL-1000 Ultraviolet Crosslinker, run twice on the energy setting ‘9999’ for about 5 minutes each run. Worms were transferred to new plates every 2-4 days. Viability was scored every day, with death determined by lack of response to a platinum wire. Missing worms, or those that died due to internal hatching were censored.

proteasome = target: T1, proteasome (Saccharomyces cerevisiae, UniProt P30656); assay: Proteasome assay with fluorogenic substrate Suc-LLVY-AMC on yeast protein extracts; type: biochemical; conditions: wild-type (BY4741) cells, presence vs absence of MPA
T1 construct: with 50 μg of total protein in 200 μL of lysis buffer; endogenous in cells; host or cells: S. cerevisiae BY4741 wild-type or ΔUBR2 cells, glass-bead lysate (total protein extract)
Protocol: For protein extraction, 50 mL of cells were grown for 18 hours to an OD600 of approximately 0.8, then transferred to a 50 mL conical tube and centrifuged at 4255×g for 5 minutes at room temperature. The supernatant was discarded, and the cells were re-suspended in 150 μL of cold lysis buffer (50 mM Tris-HCl, pH 7.5, 0.5 mM EDTA, 5 mM MgCl2, with complete ULTRA mini protease inhibitor tablets, EDTA free) and transferred to a 1.5 mL tube. A ¼ volume of 500-750 μm glass beads (Acros Organics 397641000) was added to each tube. For 10 rounds, the tubes were chilled in ice water for 1 minute, then vortexed at maximum speed for 30 seconds to physically rupture the cells, and returned to the ice water. Samples were then spun for 3 minutes at 2500×g and 4° C., and the supernatant was transferred to a fresh tube. The solution was further clarified by centrifugation at 8000×g for 10 minutes at 4° C., and the supernatant was transferred to a fresh tube. Protein concentration was measured using a Nanodrop measuring the absorbance of the sample at 280 nm.
The proteasome assay used was described in Kruegel, et al. PLoS Genet. 7, (2011). The assay was performed in a 96-well clear-bottom plate (Costar 3603) with 50 μg of total protein in 200 μL of lysis buffer. The fluorogenic proteasome substrate Suc-LLVY-AMC (Bachem 1-1395) was added to a final concentration of 100 μM. Fluorescence intensity with an excitation wavelength of 380 nm and an emission wavelength of 460 nm was recorded at 5-minute intervals using a Neo2 plate reader (BioTek) set to mix constantly and maintain 30° C. Negative control reactions were performed in the presence of 50 μM MG132 (Sigma 474787), a proteasome inhibitor.

## COc1c(C)c2c(c(O)c1C/C=C(\C)CCC(=O)O)C(=O)OC2 [mycophenolic acid]
Saccharomyces cerevisiae
  average High-Life readings (progenitor fraction viable vs CF405M intensity) relative to controls: at least slightly above controls
C. elegans
  lifespan of C. elegans: measurable extension of lifespan; also recorded: statistically significant lifespan extension
proteasome
  proteasome activity in wild-type cells: did not activate the proteasome

Reference: US20200108043A1, “COMPOUNDS AND COMPOSITIONS FOR EXTENDING LIFESPAN OF A SUBJECT” (YALE UNIVERSITY, priority 2017, published 2020)
